Test results published in patent US20250059179A1, “Heterocyclic Compounds and Methods of Use” (AMGEN INC., priority 2021, published 2025).

Biological target: GDP-bound KRAS protein (aa 1-169), containing both G12D and C118A amino acid substitutions (Homo sapiens, UniProt P01116, C118A/G12D)
Assay: KRAS G12D Coupled Nucleotide Exchange Assay;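 note: IC50 obtained by fitting the AlphaScreen signal with a four-parameter logistic curve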
Type: biochemical
Conditions: 2 h compound pre-incubation, SOS-mediated nucleotide exchange, cRAF AlphaScreen readout

Chain of GDP-bound KRAS protein (aa 1-169), containing both G12D and C118A amino acid substitutions (P01116 1-169 isoform P01116-2 G12D/C118A): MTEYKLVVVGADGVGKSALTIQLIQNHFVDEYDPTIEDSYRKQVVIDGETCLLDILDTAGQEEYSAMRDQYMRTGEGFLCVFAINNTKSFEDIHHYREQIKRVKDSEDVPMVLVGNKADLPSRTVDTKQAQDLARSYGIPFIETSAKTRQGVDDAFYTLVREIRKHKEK

Structure (SMILES) | Avg 2 h Coupled Exchange IC50 [µM] | IC50 (read-out: Avg 2 h Coupled Exchange IC50) [µM]
CN(C)C1(C)CN(c2nc(N3CCNCC3)c3cc(Cl)c(-c4cccc5sc(N)nc45)c(F)c3n2)C1 [Example 76] | – | 0.172
CNC1(C)CN(c2nc(N3CCNCC3)c3cc(Cl)c(-c4cccc5sc(N)nc45)c(F)c3n2)C1 [Example 77, 4-[6-chloro-8-fluoro-2-[3-methyl-3-(methylamino)azetidin-1-yl]-4-piperazin-1-yl-quinazolin-7-yl]-1,3-benzothiazol-2-amine] | 0.201 | –
Nc1nc2c(-c3c(Cl)cc4c(N5CCNCC5)nc(N5CC(N6CCCCC6)C5)nc4c3F)cccc2s1 [Example 78, 4-[6-chloro-8-fluoro-4-piperazin-1-yl-2-[3-(1-piperidyl)azetidin-1-yl]quinazolin-7-yl]-1,3-benzothiazol-2-amine] | 0.28 | –
CC1(N)CN(c2nc(N3CCNCC3)c3cc(Cl)c(-c4cccc5sc(N)nc45)c(F)c3n2)C1 [Example 79, 4-[2-(3-amino-3-methyl-azetidin-1-yl)-6-chloro-8-fluoro-4-piperazin-1-yl-quinazolin-7-yl]-1,3-benzothiazol-2-amine] | 0.359 | –
C[C@@H]1[C@@H](N)CN1c1nc(N2CCNCC2)c2cc(Cl)c(-c3cccc4sc(N)nc34)c(F)c2n1 [Example 80, 4-[2-[(2R,3S)-3-amino-2-methyl-azetidin-1-yl]-6-chloro-8-fluoro-4-piperazin-1-yl-quinazolin-7-yl]-1,3-benzothiazol-2-amine] | 0.377 | –
CCC1(N)CN(c2nc(N3CCNCC3)c3cc(Cl)c(-c4cccc5sc(N)nc45)c(F)c3n2)C1 [Example 81, 4-[2-(3-amino-3-ethyl-azetidin-1-yl)-6-chloro-8-fluoro-4-piperazin-1-yl-quinazolin-7-yl]-1,3-benzothiazol-2-amine] | 0.437 | –
CN1CCC[C@H]1COc1nc(N2C3CCC2C(=O)NC3)c2cc(Cl)c(-c3cccc4sc(N)nc34)c(F)c2n1 (stereo partly drawn) [Example 82, 8-(7-(2-aminobenzo[d]thiazol-4-yl)-6-chloro-8-fluoro-2-(((S)-1-methylpyrrolidin-2-yl)methoxy)quinazolin-4-yl)-3,8-diazabicyclo[3.2.1]octan-2-one] | 0.471 | –
Nc1nc2c(-c3c(Cl)cc4c(N5CCNCC5)nc(N5CC6(CCCN6)C5)nc4c3F)cccc2s1 [Example 84, 4-[6-chloro-2-(2,5-diazaspiro[3.4]octan-2-yl)-8-fluoro-4-piperazin-1-yl-quinazolin-7-yl]-1,3-benzothiazol-2-amine] | 0.567 | –
Nc1nc2c(-c3c(Cl)cc4c(N5CCNCC5)nc(N5CC(N6C[C@H]7COC[C@@H](C6)N7)C5)nc4c3F)cccc2s1 [Example 87, 4-(2-(3-((1R,5S)-3-oxa-7,9-diazabicyclo[3.3.1]nonan-7-yl)azetidin-1-yl)-6-chloro-8-fluoro-4-(piperazin-1-yl)quinazolin-7-yl)benzo[d]thiazol-2-amine] | 0.701 | –
COC1CCN(C2CN(c3nc(N4CCNCC4)c4cc(Cl)c(-c5cccc6sc(N)nc56)c(F)c4n3)C2)CC1 [Example 88, 4-[6-chloro-8-fluoro-2-[3-(4-methoxy-1-piperidyl)azetidin-1-yl]-4-piperazin-1-yl-quinazolin-7-yl]-1,3-benzothiazol-2-amine] | 0.706 | –
Nc1nc2c(-c3c(Cl)cc4c(N5CCNCC5)nc(N5C[C@@H]6NCC[C@H]65)nc4c3F)cccc2s1 [Example 93, 4-[6-chloro-2-[(1S,5R)-2,6-diazabicyclo[3.2.0]heptan-6-yl]-8-fluoro-4-piperazin-1-yl-quinazolin-7-yl]-1,3-benzothiazol-2-amine] | 1.14 | –
CN1CCCC2C1CCN2c1nc(N2CCNCC2)c2cc(Cl)c(-c3cccc4sc(N)nc34)c(F)c2n1 (centres unmarked) [Example 99, 4-(6-chloro-8-fluoro-2-(4-methyloctahydro-1H-pyrrolo[3,2-b]pyridin-1-yl)-4-(piperazin-1-yl)quinazolin-7-yl)benzo[d]thiazol-2-amine] | 1.4 | –
Nc1nc2c(-c3c(Cl)cc4c(N5CCNCC5)nc(N5CC6(CCN6)C5)nc4c3F)cccc2s1 [Example 102, 4-[6-chloro-2-(1,6-diazaspiro[3.3]heptan-6-yl)-8-fluoro-4-piperazin-1-yl-quinazolin-7-yl]-1,3-benzothiazol-2-amine] | 1.55 | –

Results, then the molecule that gave them:

Avg 2 h Coupled Exchange IC50 [µM] | IC50 (read-out: Avg 2 h Coupled Exchange IC50) [µM] | Structure (SMILES)
1.53 | – | CN1CCO[C@H]2CN(c3nc(N4CCNCC4)c4cc(Cl)c(-c5cccc6sc(N)nc56)c(F)c4n3)C[C@@H]21 (relative stereo) [Example 101, 4-(6-chloro-8-fluoro-2-(trans-4-methylhexahydropyrrolo[3,4-b][1,4]oxazin-6(2H)-yl)-4-(piperazin-1-yl)quinazolin-7-yl)benzo[d]thiazol-2-amine]
1.71 | – | CN1CCO[C@@H]2CN(c3nc(N4CCNCC4)c4cc(Cl)c(-c5cccc6sc(N)nc56)c(F)c4n3)C[C@@H]21 (relative stereo) [Example 103, 4-(6-chloro-8-fluoro-2-(cis-4-methylhexahydropyrrolo[3,4-b][1,4]oxazin-6(2H)-yl)-4-(piperazin-1-yl)quinazolin-7-yl)benzo[d]thiazol-2-amine]
0.496 | – | Nc1nc2c(-c3c(Cl)cc4c(N5CCNCC5)nc(N5CC(N6CCC(O)CC6)C5)nc4c3F)cccc2s1 [Example 83, 1-[1-[7-(2-amino-1,3-benzothiazol-4-yl)-6-chloro-8-fluoro-4-piperazin-1-yl-quinazolin-2-yl]azetidin-3-yl]piperidin-4-ol]
0.633 | – | Nc1nc2c(-c3c(Cl)cc4c(N5CCNCC5)nc(N5CC(N6CC(O)C6)C5)nc4c3F)cccc2s1 [Example 85, 1-[1-[7-(2-amino-1,3-benzothiazol-4-yl)-6-chloro-8-fluoro-4-piperazin-1-yl-quinazolin-2-yl]azetidin-3-yl]azetidin-3-ol]
0.648 | – | CC1(O)CN(C2CN(c3nc(N4CCNCC4)c4cc(Cl)c(-c5cccc6sc(N)nc56)c(F)c4n3)C2)C1 [Example 86, 1-[1-[7-(2-amino-1,3-benzothiazol-4-yl)-6-chloro-8-fluoro-4-piperazin-1-yl-quinazolin-2-yl]azetidin-3-yl]-3-methyl-azetidin-3-ol]
0.895 | – | CN(C1CN(c2nc(N3CCNCC3)c3cc(Cl)c(-c4cccc5sc(N)nc45)c(F)c3n2)C1)[C@@H]1CCOC1 [Example 89]
1.01 | – | Nc1nc2c(-c3c(Cl)cc4c(N5CCNCC5)nc(N5CC(N6CC(F)C6)C5)nc4c3F)cccc2s1 [Example 90, 4-[6-chloro-8-fluoro-2-[3-(3-fluoroazetidin-1-yl)azetidin-1-yl]-4-piperazin-1-yl-quinazolin-7-yl]-1,3-benzothiazol-2-amine]
1.013 | – | CNC1CN(c2nc(N3CCNCC3)c3cc(Cl)c(-c4cccc5sc(N)nc45)c(F)c3n2)C1 [Example 91, 4-[6-chloro-8-fluoro-2-[3-(methylamino)azetidin-1-yl]-4-piperazin-1-yl-quinazolin-7-yl]-1,3-benzothiazol-2-amine]
1.02 | – | Nc1nc2c(-c3c(Cl)cc4c(N5CCNCC5)nc(N5CC(N6CCCC(O)C6)C5)nc4c3F)cccc2s1 (centres unmarked) [Example 92, 1-[1-[7-(2-amino-1,3-benzothiazol-4-yl)-6-chloro-8-fluoro-4-piperazin-1-yl-quinazolin-2-yl]azetidin-3-yl]piperidin-3-ol]
1.14 | – | CN(C)C1CCN(c2nc(N3CCNCC3)c3cc(Cl)c(-c4cccc5sc(N)nc45)c(F)c3n2)C1 (centres unmarked) [Example 94, 4-[6-chloro-8-fluoro-4-piperazin-1-yl-2-[3-(dimethylamino)pyrrolidin-1-yl]quinazolin-7-yl]-1,3-benzothiazol-2-amine]
1.18 | – | CN(C)[C@@H]1CCN(c2nc(N3CCNCC3)c3cc(Cl)c(-c4cccc5sc(N)nc45)c(F)c3n2)C1 [Example 95, 4-[6-chloro-2-[(3R)-3-(dimethylamino)pyrrolidin-1-yl]-8-fluoro-4-piperazin-1-yl-quinazolin-7-yl]-1,3-benzothiazol-2-amine]
1.251 | – | Nc1nc2c(-c3c(Cl)cc4c(N5CCNCC5)nc(N5CC(N)C5)nc4c3F)cccc2s1 [Example 96, 4-[2-(3-aminoazetidin-1-yl)-6-chloro-8-fluoro-4-piperazin-1-yl-quinazolin-7-yl]-1,3-benzothiazol-2-amine]
1.27 | – | CNC1CCN(c2nc(N3CCNCC3)c3cc(Cl)c(-c4cccc5sc(N)nc45)c(F)c3n2)C1 (centres unmarked) [Example 97, 4-[6-chloro-8-fluoro-4-piperazin-1-yl-2-[3-(methylamino)pyrrolidin-1-yl]quinazolin-7-yl]-1,3-benzothiazol-2-amine]
1.31 | – | CN1CCC2CN(c3nc(N4CCNCC4)c4cc(Cl)c(-c5cccc6sc(N)nc56)c(F)c4n3)CC21 (centres unmarked) [Example 98, 4-(6-chloro-8-fluoro-2-(1-methylhexahydropyrrolo[3,4-b]pyrrol-5(1H)-yl)-4-(piperazin-1-yl)quinazolin-7-yl)benzo[d]thiazol-2-amine]
1.5 | – | CN(C1COC1)C1CN(c2nc(N3CCNCC3)c3cc(Cl)c(-c4cccc5sc(N)nc45)c(F)c3n2)C1 [Example 100, 4-[6-chloro-8-fluoro-2-[3-[methyl(oxetan-3-yl)amino]azetidin-1-yl]-4-piperazin-1-yl-quinazolin-7-yl]-1,3-benzothiazol-2-amine]
1.73 | – | CON(C)C1CN(c2nc(N3CCNCC3)c3cc(Cl)c(-c4cccc5sc(N)nc45)c(F)c3n2)C1 [Example 104, 4-[6-chloro-8-fluoro-2-[3-[methoxy(methyl)amino]azetidin-1-yl]-4-piperazin-1-yl-quinazolin-7-yl]-1,3-benzothiazol-2-amine]
